{"source": "patent US10207006B2", "about": "“Oligosaccharide conjugates and methods of use” (priority 2013, dated 2019)", "key": {"[1]": {"system": "anti-M monoclonal antibody BM40", "type": "binding"}, "[2]": {"system": "anti-A and anti-M rabbit hyperimmunised and absorbed monospecific sera", "type": "binding"}}}
{"smiles": "C[C@H]1O[C@H](O[C@@H]2[C@@H](O[C@@H]3[C@H](O)[C@@H](O[C@H]4[C@@H](O)[C@H](NC=O)[C@@H](C)O[C@@H]4O)O[C@H](C)[C@H]3NC=O)O[C@H](C)[C@@H](NC=O)[C@@H]2O)[C@@H](O)[C@@H](O)[C@@H]1NC=O", "note": "[TSM antigen, 4,6-dideoxy-4-formamido-α-D-mannopyranosyl-(1-2)-4,6-dideoxy-4-formamido-α-D-mannopyranosyl-(1-3)-4,6-dideoxy-4-formamido-α-D-mannopyranosyl-(1-2)-4,6-dideoxy-4-formamido-α-D-mannopyranose]", "values": [{"measurement": "inhibition of BM40 mAb binding by competing liquid phase antigen", "setting": "[1]", "result": "inhibit the binding to a greater extent than the equivalent concentration of Y. enterocolitica O:9 OPS and to a similar degree as the B. abortus S99 OPS"}, {"measurement": "inhibition of anti-M vs anti-A monospecific sera binding", "setting": "[2]", "result": "preferential inhibition of the anti-M sera"}]}
{"smiles": "CO[C@H]1OC(C)[C@@H](NC=O)C(O)C1O[C@H]1OC(C)[C@@H](NC=O)C(O[C@H]2OC(C)[C@@H](NC=O)C(O)C2O[C@H](C=O)OC(C)[C@H](C=O)NC=O)C1O", "note": "(stereo partly drawn) [oxiTSM]", "values": [{"measurement": "inhibition of BM40 mAb binding by competing liquid phase antigen", "setting": "[1]", "result": "maintained its antibody interaction"}]}
